# Legend:
# [1] = test system: LNCaP; assay: Antiproliferative activity against human LNCaP cells assessed as inhibition of cell viability incubated for 3 days by MTT/CTG assay; conditions: 72 h
# [2] = test system: HGC-27; assay: Antiproliferative activity against human HGC-27 cells assessed as inhibition of cell viability incubated for 3 days by MTT/CTG assay; conditions: HGC-27, 72 h
# [3] = test system: MDA-MB-453; assay: Antiproliferative activity against human MDA-MB-453 cells assessed as inhibition of cell viability incubated for 3 days by MTT/CTG assay; conditions: MDA-MB-453, 72 h
# [4] = test system: AGS; assay: Antiproliferative activity against human AGS cells assessed as inhibition of cell viability incubated for 3 days by MTT/CTG assay; conditions: 72 h
# [5] = test system: T47D; assay: Antiproliferative activity against human T47D cells assessed as inhibition of cell viability incubated for 3 days by MTT/CTG assay; conditions: 72 h
# [6] = test system: Pfeiffer; assay: Antiproliferative activity against human Pfeiffer cells assessed as inhibition of cell viability incubated for 3 days by MTT/CTG assay; conditions: 72 h
# [7] = test system: PC-3; assay: Antiproliferative activity against human PC-3 cells assessed as inhibition of cell viability incubated for 3 days by MTT/CTG assay; conditions: PC-3, 72 h
# [8] = AUC (0 to t) in ICR mouse at 30 mg/kg, ip measured for 24 hrs by LC-MS/MS analysis; format: ADME, organism-based; conditions: in vivo
# [9] = Toxicity in male BALB/c nude mouse model xenografted with human DOHH-2 cells assessed as body weight loss at 30 mg/kg, ip qd treated for 21 days consecutively; format: organism-based; conditions: in vivo, 504 h, time 21 day
# [10] = Metabolic stability in human plasma at 2 uM measured up to 60 mins by LC-MS/MS analysis; format: ADME, cell-free; conditions: 1 h
# [11] = Toxicity in male BALB/c nude mouse model xenografted with human HGC-27 cells assessed as body weight change at 30 to 60 mg/kg, ip qd treated for 14 days consecutively; format: organism-based; conditions: in vivo, 336 h, dose 30-60 mg/kg, time 14 day
# [12] = AUC (0 to t) in ICR mouse at 3 mg/kg, iv measured for 24 hrs by LC-MS/MS analysis; format: ADME, organism-based; conditions: in vivo
# [13] = Metabolic stability in mouse liver microsomes assessed as half life at 2 uM measured up to 60 mins by LC-MS/MS analysis; format: ADME, Microsome
# [14] = MRT (0 to t) in Sprague-Dawley rat at 15 mg/kg, ip measured for 24 hrs by LC-MS/MS analysis; format: ADME, organism-based; conditions: in vivo
# [15] = Terminal half life in ICR mouse at 3 mg/kg, iv measured for 24 hrs by LC-MS/MS analysis; format: ADME, organism-based; conditions: in vivo, read-out: beta t1/2 (converted)
# [16] = Drug metabolism in human liver microsomes at 2 uM measured up to 60 mins in absence of NADPH by LC-MS/MS analysis; format: ADME, Microsome; conditions: 1 h
# [17] = Oral bioavailability in Sprague-Dawley rat at 15 mg/kg measured for 24 hrs by LC-MS/MS analysis; format: ADME, organism-based; conditions: in vivo
# [18] = Cytotoxicity against human AC16 [Human hybrid] cells; format: toxicity, cell-based
# [19] = AUC (0 to t) in Sprague-Dawley rat at 15 mg/kg, ip measured for 24 hrs by LC-MS/MS analysis; format: ADME, organism-based; conditions: in vivo
# [20] = Drug metabolism in monkey liver microsomes at 2 uM measured up to 60 mins in absence of NADPH by LC-MS/MS analysis; format: ADME, Macaca mulatta, Microsome; conditions: rhesus monkey, 1 h
# [21] = test system: HGC-27; assay: Antitumor activity against human HGC-27 cells xenografted in male BALB/c nude mouse model at 60 mg/kg, ip qd treated for 14 days consecutively relative to control; format: functional; conditions: HGC-27, 336 h, time 14 day, read-out: TGI
# [22] = Toxicity in male BALB/c nude mouse model xenografted with human DOHH-2 cells assessed as drug tolerance at 30 mg/kg, ip qd treated for 21 days consecutively; format: organism-based; conditions: in vivo, 504 h, time 21 day
# [23] = MRT (0 to t) in ICR mouse at 30 mg/kg, ip measured for 24 hrs by LC-MS/MS analysis; format: ADME, organism-based; conditions: in vivo
# [24] = Terminal half life in Sprague-Dawley rat at 15 mg/kg, ip measured for 24 hrs by LC-MS/MS analysis; format: ADME, organism-based; conditions: in vivo, read-out: beta t1/2 (converted)
# [25] = Metabolic stability in rat liver microsomes assessed as half life at 2 uM measured up to 60 mins by LC-MS/MS analysis; format: ADME, Microsome
# [26] = Drug metabolism in rat liver microsomes at 2 uM measured up to 60 mins in absence of NADPH by LC-MS/MS analysis; format: ADME, Microsome; conditions: 1 h
# [27] = test system: DOHH-2; assay: Antitumor activity against human DOHH-2 cells xenografted in male BALB/c nude mouse model at 30 mg/kg, ip qd treated for 21 days consecutively relative to control; format: functional; conditions: DOHH-2, 504 h, time 21 day, read-out: TGI
# [28] = Metabolic stability in rat plasma at 2 uM measured up to 60 mins by LC-MS/MS analysis; format: ADME, cell-free; conditions: 1 h
# [29] = Metabolic stability in dog plasma at 2 uM measured up to 60 mins by LC-MS/MS analysis; format: ADME, cell-free, Canis lupus familiaris; conditions: 1 h
# [30] = Oral bioavailability in ICR mouse at 30 mg/kg measured for 24 hrs by LC-MS/MS analysis; format: ADME, organism-based; conditions: in vivo
# [31] = test system: T47D; assay: Induction of cell cycle arrest in human T47D cells assessed as accumulation at G2/M phase incubated for 24 hrs by PI staining based flow cytometry; format: functional; conditions: dose 0.1-10 µM
# [32] = Drug metabolism in dog liver microsomes at 2 uM measured up to 60 mins in absence of NADPH by LC-MS/MS analysis; format: ADME, Canis lupus familiaris, Microsome; conditions: 1 h
# [33] = test system: Mus musculus; assay: In vivo PROTAC activity at CRBN/PI3K-alpha in human HGC-27 cells xenografted in male BALB/c nude mouse model assessed as PI3K-alpha degradation administered intraperitoneally once daily for 14 days consecutively; format: functional, organism-based; conditions: dose 30-60 mg/kg, route ip, time 14.0 day
# [34] = MRT (0 to t) in ICR mouse at 3 mg/kg, iv measured for 24 hrs by LC-MS/MS analysis; format: ADME, organism-based; conditions: in vivo
# [35] = molecular target: Phosphatidylinositol 4,5-bisphosphate 3-kinase catalytic subunit gamma isoform (Homo sapiens, UniProt P48736); assay: Inhibition of PI3K-gamma (unknown origin) by kinase selectivity profiling analysis
# [36] = test system: T47D; assay: Effect on PI3K-alpha mRNA level in human T47D cells at 1 uM incubated for 24 hrs by RT-PCR analysis; format: functional, cell-based
# [37] = molecular target: hERG (KCNH2) (Homo sapiens, UniProt Q12809); assay: Inhibition of hERG stably expressed in HEK293 cells at 10 uM by whole-cell patch-clamp technique relative to control; format: toxicity, cell-based; conditions: HEK293 cells stably expressing hERG
# [38] = Metabolic stability in mouse plasma at 2 uM measured up to 60 mins by LC-MS/MS analysis; format: ADME, cell-free; conditions: 1 h
# [39] = MRT (0 to t) in Sprague-Dawley rat at 1.5 mg/kg, iv measured for 24 hrs by LC-MS/MS analysis; format: ADME, organism-based; conditions: in vivo
# [40] = Toxicity in C57BL/6J mouse administered intraperitoneally for 7 days; conditions: in vivo, route ip, time 7 day
# [41] = Metabolic stability in dog liver microsomes assessed as half life at 2 uM measured up to 60 mins by LC-MS/MS analysis; format: ADME, Canis lupus familiaris, Microsome
# [42] = test system: HGC-27; assay: Antitumor activity against human HGC-27 cells xenografted in male BALB/c nude mouse model at 30 mg/kg, ip qd treated for 14 days consecutively relative to control; format: functional; conditions: HGC-27, 336 h, time 14 day, read-out: TGI
# [43] = AUC (0 to t) in Sprague-Dawley rat at 1.5 mg/kg, iv measured for 24 hrs by LC-MS/MS analysis; format: ADME, organism-based; conditions: in vivo
# [44] = Metabolic stability in human liver microsomes assessed as half life at 2 uM measured up to 60 mins by LC-MS/MS analysis; format: ADME, Microsome
# [45] = Metabolic stability in monkey liver microsomes assessed as half life at 2 uM measured up to 60 mins by LC-MS/MS analysis; format: ADME, Macaca mulatta, Microsome; conditions: rhesus monkey
# [46] = Cmax in Sprague-Dawley rat at 15 mg/kg, ip measured for 24 hrs by LC-MS/MS analysis; format: ADME, organism-based; conditions: in vivo
# [47] = Toxicity in C57BL/6J mouse assessed as body weight change at 100 mg/kg, ip treated daily for 7 days; format: organism-based; conditions: in vivo, 168 h, time 7 day
# [48] = Terminal half life in ICR mouse at 30 mg/kg, ip measured for 24 hrs by LC-MS/MS analysis; format: ADME, organism-based; conditions: in vivo, read-out: beta t1/2
# [49] = Metabolic stability in monkey plasma at 2 uM measured up to 60 mins by LC-MS/MS analysis; format: ADME, cell-free, Macaca mulatta; conditions: rhesus monkey, 1 h
# [50] = molecular target: Voltage-gated inwardly rectifying potassium channel KCNH2 (Homo sapiens, UniProt Q12809); assay: Inhibition of hERG stably expressed in HEK293 cells by whole-cell patch-clamp technique; format: toxicity, cell-based
# [51] = Drug metabolism in mouse liver microsomes at 2 uM measured up to 60 mins in absence of NADPH by LC-MS/MS analysis; format: ADME, Microsome; conditions: 1 h
# [52] = Terminal half life in Sprague-Dawley rat at 1.5 mg/kg, iv measured for 24 hrs by LC-MS/MS analysis; format: ADME, organism-based; conditions: in vivo, read-out: beta t1/2 (converted)
# [53] = Toxicity in male BALB/c nude mouse model xenografted with human HGC-27 cells assessed as drug tolerance at 30 to 60 mg/kg, ip qd treated for 14 days consecutively; format: organism-based; conditions: in vivo, 336 h, dose 30-60 mg/kg, time 14 day
# [54] = Cmax in ICR mouse at 30 mg/kg, ip measured for 24 hrs by LC-MS/MS analysis; format: ADME, organism-based; conditions: in vivo
# Chain of hERG (KCNH2) (Q12809 whole entry): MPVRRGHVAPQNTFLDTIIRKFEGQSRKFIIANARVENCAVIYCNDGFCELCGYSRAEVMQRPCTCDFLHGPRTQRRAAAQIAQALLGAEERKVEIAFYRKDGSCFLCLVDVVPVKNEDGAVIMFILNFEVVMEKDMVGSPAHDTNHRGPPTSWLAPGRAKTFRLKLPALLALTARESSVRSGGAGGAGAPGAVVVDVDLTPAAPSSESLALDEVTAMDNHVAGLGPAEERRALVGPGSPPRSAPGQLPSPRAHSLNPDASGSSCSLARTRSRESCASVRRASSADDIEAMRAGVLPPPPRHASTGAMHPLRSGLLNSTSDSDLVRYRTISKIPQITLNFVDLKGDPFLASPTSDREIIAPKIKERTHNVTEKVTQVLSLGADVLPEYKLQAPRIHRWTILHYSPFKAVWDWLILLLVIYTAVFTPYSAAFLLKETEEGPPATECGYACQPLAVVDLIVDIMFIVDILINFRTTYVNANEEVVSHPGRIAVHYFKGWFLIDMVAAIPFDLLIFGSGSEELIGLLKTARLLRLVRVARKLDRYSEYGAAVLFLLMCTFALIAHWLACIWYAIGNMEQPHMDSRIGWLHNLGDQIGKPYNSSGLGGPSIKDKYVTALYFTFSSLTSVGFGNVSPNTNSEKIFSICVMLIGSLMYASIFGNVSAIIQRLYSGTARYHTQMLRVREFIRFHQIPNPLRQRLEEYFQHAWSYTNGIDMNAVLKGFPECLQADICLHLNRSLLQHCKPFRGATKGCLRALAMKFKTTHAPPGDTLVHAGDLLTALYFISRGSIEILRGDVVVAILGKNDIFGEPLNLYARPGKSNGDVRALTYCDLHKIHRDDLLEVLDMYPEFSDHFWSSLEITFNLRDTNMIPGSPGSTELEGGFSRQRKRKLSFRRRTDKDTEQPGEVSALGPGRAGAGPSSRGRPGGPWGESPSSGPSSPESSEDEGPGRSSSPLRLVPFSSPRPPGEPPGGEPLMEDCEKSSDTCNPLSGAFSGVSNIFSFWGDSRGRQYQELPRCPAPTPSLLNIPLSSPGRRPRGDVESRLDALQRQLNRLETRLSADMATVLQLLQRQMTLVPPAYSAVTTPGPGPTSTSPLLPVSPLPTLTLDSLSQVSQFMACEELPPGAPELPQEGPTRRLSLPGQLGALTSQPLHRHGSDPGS
# Chain of Voltage-gated inwardly rectifying potassium channel KCNH2 (Q12809 whole entry): as above
# Chain of Phosphatidylinositol 4,5-bisphosphate 3-kinase catalytic subunit gamma isoform (P48736 whole entry, canonical isoform): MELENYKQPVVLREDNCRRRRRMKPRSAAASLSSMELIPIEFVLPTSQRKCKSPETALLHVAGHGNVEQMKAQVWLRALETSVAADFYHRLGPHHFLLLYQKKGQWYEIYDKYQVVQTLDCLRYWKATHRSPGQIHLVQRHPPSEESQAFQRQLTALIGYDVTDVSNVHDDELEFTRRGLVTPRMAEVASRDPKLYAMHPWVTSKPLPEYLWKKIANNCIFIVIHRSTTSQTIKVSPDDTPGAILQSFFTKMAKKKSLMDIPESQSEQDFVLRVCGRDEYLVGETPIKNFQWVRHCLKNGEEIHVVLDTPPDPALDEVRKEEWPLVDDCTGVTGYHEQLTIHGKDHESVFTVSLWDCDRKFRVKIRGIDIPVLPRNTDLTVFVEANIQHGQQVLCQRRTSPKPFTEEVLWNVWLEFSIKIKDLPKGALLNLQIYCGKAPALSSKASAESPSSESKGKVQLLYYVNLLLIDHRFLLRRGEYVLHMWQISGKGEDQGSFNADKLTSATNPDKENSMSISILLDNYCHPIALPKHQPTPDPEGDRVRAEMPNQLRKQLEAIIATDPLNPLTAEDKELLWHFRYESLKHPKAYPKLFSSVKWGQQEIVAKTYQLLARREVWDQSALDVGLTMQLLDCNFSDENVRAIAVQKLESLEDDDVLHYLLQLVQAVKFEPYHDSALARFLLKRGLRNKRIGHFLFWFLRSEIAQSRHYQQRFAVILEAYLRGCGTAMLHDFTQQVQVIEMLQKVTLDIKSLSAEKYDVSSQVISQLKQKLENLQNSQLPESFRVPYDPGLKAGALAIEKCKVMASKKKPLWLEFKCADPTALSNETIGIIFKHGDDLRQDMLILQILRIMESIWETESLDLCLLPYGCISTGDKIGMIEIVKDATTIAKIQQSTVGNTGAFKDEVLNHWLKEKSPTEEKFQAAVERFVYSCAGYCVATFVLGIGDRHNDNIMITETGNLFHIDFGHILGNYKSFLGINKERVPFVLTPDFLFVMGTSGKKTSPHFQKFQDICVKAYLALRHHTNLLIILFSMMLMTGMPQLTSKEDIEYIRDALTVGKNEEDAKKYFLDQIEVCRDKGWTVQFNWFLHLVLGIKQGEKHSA
structure (smiles),measurement,setting,value
Cc1nc(NC(=O)N2CCC[C@H]2C(N)=O)sc1-c1ccnc(C(C)(C)C(F)(F)F)c1 [ALPELISIB],IC50,[1],15800 nM
same,IC50,[2],1920 nM
same,IC50,[3],770 nM
same,IC50,[4],520 nM
same,IC50,[5],360 nM
same,IC50,[6],> 50000 nM
same,IC50,[7],13200 nM
COc1ncc(-c2cc(OCCCCCCCCCCCCNc3cccc4c3C(=O)N(C3CCC(=O)NC3=O)C4=O)c3ncnc(C)c3c2)cc1NS(=O)(=O)c1ccc(F)cc1F (stereo unspecified),AUC(0-t) at 24 h,[8],26300 ng·h/mL
same,Activity,[9],Non-toxic
same,Stability,[10],Stable
same,Activity,[11],Non-toxic
same,AUC(0-t) at 24 h,[12],12700 ng·h/mL
same,half-life at 2 µM,[13],0.377 h
same,MRT last at 24 h,[14],6.05 h
same,half-life,[15],7.88 h
same,Drug metabolism,[16],metabolite_notdetected
same,bioavailability,[17],46.4%
same,IC50,[1],3380 nM
same,IC50,[18],> 50000 nM
same,AUC(0-t) at 24 h,[19],5490 ng·h/mL
same,IC50,[2],1450 nM
same,Drug metabolism,[20],metabolite_notdetected
same,inhibition in vivo at 60 mg/kg,[21],56.8%
same,Activity,[22],Non-toxic
same,MRT last at 24 h,[23],10.7 h
same,IC50,[3],1640 nM
same,half-life,[24],4.28 h
same,half-life at 2 µM,[25],0.762 h
same,Drug metabolism,[26],metabolite_notdetected
same,inhibition in vivo at 30 mg/kg,[27],61.8%
same,Stability,[28],Stable
same,Stability,[29],Stable
same,IC50,[4],370 nM
same,bioavailability,[30],20%
same,Activity,[31],Dose-dependent-effect
same,Drug metabolism,[32],metabolite_notdetected
same,Activity,[33],Dose-dependent-effect
same,MRT last at 24 h,[34],6.69 h
same,IC50,[35],> 10000 nM
same,Activity,[36],No effect
same,inhibition at 10 µM,[37],10.2%
same,Stability,[38],Stable
same,MRT last at 24 h,[39],1.98 h
same,MTD at 168 h,[40],> 100 mg/kg
same,half-life at 2 µM,[41],1.12 h
same,IC50,[5],350 nM
same,inhibition in vivo at 30 mg/kg,[42],38.3%
same,AUC(0-t) at 24 h,[43],1120 ng·h/mL
same,IC50,[6],690 nM
same,half-life at 2 µM,[44],0.578 h
same,IC50,[7],1480 nM
same,half-life at 2 µM,[45],0.542 h
same,Cmax,[46],555 ng/mL
same,Activity,[47],Non-toxic
same,half-life,[48],> 24 h
same,Stability,[49],Stable
same,IC50,[50],> 10000 nM
same,Drug metabolism,[51],metabolite_notdetected
same,half-life,[52],2.11 h
same,Activity,[53],Non-toxic
same,Cmax,[54],1420 ng/mL

# Source: ChEMBL document CHEMBL6178022, “Discovery and Optimization of Potent PROTAC Degraders of Phosphoinositide 3-Kinase with Significant in Vivo Anticancer Efficacy” (J Med Chem, 2025)
